Here are results for two molecules from patent publication US4224371A, “Sodium 3-acetoxylmethyl-7-[2-(2-amino-4-thiazolyl)-2-methoxyimino-acetamido]-ce ph-3-eme-4-carboxylate” (priority 1977, dated 1980).

Structures can show the parent of a compound that is named as a salt. Where two headings read alike, the source gives them in different places.

Data set [1] is described as follows: Affinity to atmospheric humidity / hygroscopicity. It counts as physicochemical. The conditions noted are these: solid.
The test system of data set [2] is Staphylococcus aureus I H 005. The experiment in a line: In vitro antibacterial activity, liquid medium dilution (MIC). It counts as cell-based. The settings on record: 37° C., read-out: minimum inhibiting concentration (MIC). The procedure:
(§1) The method used was a dilution of a liquid medium where a series of tubes received the same quantity of a sterile nutritive media and increasing doses of the test compounds were placed therein. Then each tube was seeded with a bacterial strain and was incubated for 24 to 48 hours at 37° C. in an oven. The increasing inhibition was determined by transillumination to determine the minimum inhibiting concentration (MIC in μg/ml) and the results are reported in the following Tables.
(§2) Product A is the crystalline D form of the syn isomer of sodium 3-acetoxymethyl-7-[2-(2-amino-4-thiazolyl)-2-methoxyimino-acetamido]-ceph- 3-eme-4-carboxylate.

Data set [3] deals with Escherichia Coli 7881. Described as above. It counts as cell-based. The conditions noted are these: 37° C., read-out: minimum inhibiting concentration (MIC). The procedure: as §1, §2
The test system of data set [4] is Klebsiella Pneumoniae COc 238. The data set is described as above. Format: cell-based. The settings on record: 37° C., read-out: minimum inhibiting concentration (MIC). The protocol: as §1, §2
Data set [5] deals with Proteus Vulgaris Co 4. Described as above. It counts as cell-based. The settings on record: 37° C., read-out: minimum inhibiting concentration (MIC). The protocol: as §1, §2
Data set [6] concerns Proteus Vulgaris Du 27. The data set is described as above. The settings on record: 37° C., read-out: minimum inhibiting concentration (MIC). It counts as cell-based. The procedure:
as §1, §2

Data set [7] relates to Proteus Mirabilis 1816. The data set is described as above. It counts as cell-based. The conditions noted are these: 37° C., read-out: minimum inhibiting concentration (MIC). The protocol:
as §1, §2

For data set [8], the system named is Salmonella typhimurium 6478. The description is as above. Format: cell-based. The settings on record: Salmonella enterica, 37° C., read-out: minimum inhibiting concentration (MIC). The protocol: as §1, §2
In data set [9] the test system is Proteus Mirabilis 3477. The data set is described as above. The conditions noted are these: 37° C., read-out: minimum inhibiting concentration (MIC). It counts as cell-based. The protocol: as §1, §2
Data set [10] relates to Staphylococcus aureus I H 41. The data set is described as above. The conditions noted are these: 37° C., read-out: minimum inhibiting concentration (MIC). Format: cell-based. The procedure:
as §1, §2

In data set [11] the test system is Staphylococcus aureus I H 38. Described as above. The settings on record: 37° C., read-out: minimum inhibiting concentration (MIC). Format: cell-based. The procedure:
as §1, §2

Data set [12] relates to Staphylococcus aureus I H 47. Described as above. Format: cell-based. The settings on record: 37° C., read-out: minimum inhibiting concentration (MIC). The procedure: as §1, §2
For data set [13], the system named is Klebsiella Pneumoniae COc 229. The data set is described as above. It counts as cell-based. The conditions noted are these: 37° C., read-out: minimum inhibiting concentration (MIC). The procedure: as §1, §2
In data set [14] the test system is Proteus Mirabilis 9048. Described as above. Format: cell-based. The conditions noted are these: 37° C., read-out: minimum inhibiting concentration (MIC). The protocol: as §1, §2
The subject of data set [15] is Escherichia Coli A 223. Described as above. Format: cell-based. The settings on record: 37° C., read-out: minimum inhibiting concentration (MIC). The protocol: as §1, §2
Data set [16] relates to Escherichia Coli T 55 4076. The data set is described as above. It counts as cell-based. The settings on record: 37° C., read-out: minimum inhibiting concentration (MIC). The procedure:
as §1, §2

Data set [17] has as its system Escherichia Coli T 55 4376. The description is as above. Format: cell-based. The conditions noted are these: 37° C., read-out: minimum inhibiting concentration (MIC). The protocol:
as §1, §2

Data set [18] has as its system Proteus Vulgaris Co 1. Described as above. The conditions noted are these: 37° C., read-out: minimum inhibiting concentration (MIC). Format: cell-based. The procedure: as §1, §2
Data set [19] is described as follows: Stability test, percent of activity remaining on storage. Format: physicochemical. The settings on record: nonsterile air; for % of activity after storage: time 0, closed flask. The procedure:
Product A was placed in a flask containing nonsterile air and it was closed with a rubber stopper. The flask was stored at the temperatures for the times indicated in the following table and the percent of activity remaining was determined.

On to `CO/N=C(\C(=O)NC1C(=O)N2C(C(=O)O)=C(COC(C)=O)CSC12)c1csc(N)n1` (stereo not drawn) [Product A, sodium 3-acetoxymethyl-7-[2-(2-amino-4-thiazolyl)-2-methoxyimino-acetamido]-ceph-3-eme-4-carboxylate], for which the “affinity to atmospheric humidity / hygroscopicity” value in data set [1] (listed as crystalline D form) is reported as “low affinity to atmospheric humidity”. In addition, the MIC in data set [2] (IH005, 24 H) is 2 µg/mL; in [2] (IH005, 48 H) it was 3 µg/mL; in [3] (COLI7881, 24 H) it was 0.1 µg/mL; in data set [3] (COLI7881, 48 H), 0.1 µg/mL; in data set [4] (24 H), 0.2 µg/mL; in data set [4] (48 H), 0.2 µg/mL. Further, the MIC in data set [5] (24 H) is 0.6 µg/mL; in data set [5] (48 H), 0.6 µg/mL; in data set [6] (24 H), at most 0.02 µg/mL; in data set [6] (48 H) it was at most 0.02 µg/mL; in [7] (24 H), 0.05 µg/mL; in data set [7] (48 H) it was 0.05 µg/mL. The MIC in data set [8] (24 H) is 0.1 µg/mL; in [8] (48 H), 0.1 µg/mL; in data set [9] (24 H) it was 0.05 µg/mL; in [9] (48 H) it was 0.05 µg/mL; in data set [10] (IH41, 24 H), 1 µg/mL; in data set [10] (IH41, 48 H), 2 µg/mL. For the same molecule, the MIC in data set [11] (IH38, 24 H) came out at 1 µg/mL; in data set [11] (IH38, 48 H), 2 µg/mL; in [12] (IH47, 24 H) it was 2 µg/mL; in data set [12] (IH47, 48 H), 2 µg/mL; in data set [13] (24 H), 0.1 µg/mL; in [13] (48 H) it was 0.1 µg/mL. Moreover, the MIC in data set [14] (24 H) was 0.02 µg/mL; in data set [14] (48 H) it was 0.02 µg/mL; in data set [15] (COLIA223, 24 H), 0.1 µg/mL; in [15] (COLIA223, 48 H), 0.1 µg/mL; in data set [16] (COLIT554076, 24 H), 0.05 µg/mL; in [16] (COLIT554076, 48 H), 0.05 µg/mL. The MIC in data set [17] (COLIT554376, 24 H) came out at 0.1 µg/mL; in data set [17] (COLIT554376, 48 H), 0.1 µg/mL; in data set [18] (24 H), 0.2 µg/mL; in data set [18] (48 H) it was 0.4 µg/mL. For the same molecule, the remaining at 1080 h in data set [19] (50° C., 1.5 months, closed flask, read-out: % of activity after storage) was determined as 92.5%. Moreover, the remaining at 2160 h in [19] (50° C., 3 months, closed flask, read-out: % of activity after storage) is 92%. In addition, the “% of activity after storage” value in data set [19] (50° C.) and in data set [19] (80° C.) was 97% each time. In addition, the remaining at 336 h in data set [19] (80° C., 2 weeks, closed flask, read-out: % of activity after storage) amounted to 81.5%. Further, the remaining at 160 h in data set [19] (80° C., 160 hours, closed flask, read-out: % of activity after storage) was found to be 89.5%.

In the case of `CO/N=C(\C(=O)NC1C(=O)N2C(C(=O)O)=C(COC(C)=O)CSC12)c1csc(N)n1` (stereo not drawn) [sodium salt not containing methanol, sodium 3-acetoxymethyl-7-[2-(2-amino-4-thiazolyl)-2-methoxyimino-acetamido]-ceph-3-eme-4-carboxylate], in data set [1], the “affinity to atmospheric humidity / hygroscopicity” value was “hygroscopic”.
